The values below are quoted from earlier work in patent US12453351B2, “Herbicide compatibility improvement” (Monsanto Technology LLC, priority 2005, dated 2025).

Each structure is given as a SMILES string.

For this data set the following is noted: at 25° C.

Regarding `O=C(O)CNCP(=O)(O)O` [Glyphosate], the Solubility in water is recorded as 1.16 % by weight.
